The values that follow come from ChEMBL document CHEMBL4725409, “Understanding and Improving the Membrane Permeability of VH032-Based PROTACs” (ACS Med Chem Lett, 2020).

The structures appear in SMILES notation.

The first data set is described as follows: Partition coefficient, logD of the compound in 1,9-decadiene and phosphate buffer at pH 7.4 measured after 30 mins under shaking condition by LC-MS analysis. Format: physicochemical.
Settings: not given
The compound `Cc1ncsc1-c1ccc(CNC(=O)[C@@H]2C[C@@H](O)CN2C(=O)[C@@H](OC(=O)CCOCCOCCOCCNC(=O)Cc2ccccc2)C(C)(C)C)cc1` came in with a logD hydrocarbon water at 0.5 h of -1.6.
Still for that read-out and setting: next, `Cc1ncsc1-c1ccc(CNC(=O)[C@@H]2C[C@@H](O)CN2C(=O)[C@@H](NC(=O)COCCOCCOCCNC(=O)C[C@@H]2N=C(c3ccc(Cl)cc3)c3c(sc(C)c3C)-n3c(C)nnc32)C(C)(C)C)cc1`: -1.6; `Cc1ncsc1-c1ccc(CNC(=O)[C@@H]2C[C@@H](O)CN2C(=O)[C@@H](NC(=O)CCOCCOCCOCCNC(=O)Cc2ccccc2)C(C)(C)C)cc1`: -2.2; `CC(=O)N1c2ccc(-c3ccc(C(=O)NCCOCCOCC(=O)N[C@H](C(=O)N4C[C@H](O)C[C@H]4C(=O)NCc4ccc(-c5scnc5C)cc4)C(C)(C)C)cc3)cc2[C@H](Nc2ccc(Cl)cc2)C[C@@H]1C`: -0.7.
Consider `Cc1ncsc1-c1ccc(CNC(=O)[C@@H]2C[C@@H](O)CN2C(=O)[C@@H](NC(=O)COCCOCCNC(=O)C[C@@H]2N=C(c3ccc(Cl)cc3)c3c(sc(C)c3C)-n3c(C)nnc32)C(C)(C)C)cc1`, for which the logD hydrocarbon water at 0.5 h was -1.1.
Same read-out and setting: the same measure for `Cc1ncsc1-c1ccc(CNC(=O)[C@@H]2C[C@@H](O)CN2C(=O)[C@@H](NC(=O)COCCOCCOCCOCC(=O)N[C@H](C(=O)N2C[C@H](O)C[C@H]2C(=O)NCc2ccc(-c3scnc3C)cc2)C(C)(C)C)C(C)(C)C)cc1`: -3.8; for `Cc1ncsc1-c1ccc(CNC(=O)[C@@H]2C[C@@H](O)CN2C(=O)[C@@H](NC(=O)[C@H](Cc2ccccc2)NC(=O)COCCOCCOCCNC(=O)C[C@@H]2N=C(c3ccc(Cl)cc3)c3c(sc(C)c3C)-n3c(C)nnc32)C(C)(C)C)cc1`: -1.6.
`Cc1ncsc1-c1ccc(CNC(=O)[C@@H]2C[C@@H](O)CN2C(=O)[C@@H](NC(=O)COCCOCCOCCOCCOCCOCC(=O)N[C@H](C(=O)N2C[C@H](O)C[C@H]2C(=O)NCc2ccc(-c3scnc3C)cc2)C(C)(C)C)C(C)(C)C)cc1` displayed a logD hydrocarbon water at 0.5 h of -4.3.
Same read-out and setting: next, `Cc1ncsc1-c1ccc(CNC(=O)[C@@H]2C[C@@H](O)CN2C(=O)[C@@H](NC(=O)Cc2ccccc2)C(C)(C)C)cc1`: -0.7.
Still for that read-out and setting: next, `CC(=O)N1c2ccc(-c3ccc(C(=O)NCCOCCOCCOCCOCC(=O)N[C@H](C(=O)N4C[C@H](O)C[C@H]4C(=O)NCc4ccc(-c5scnc5C)cc4)C(C)(C)C)cc3)cc2[C@H](Nc2ccc(Cl)cc2)C[C@@H]1C`: -0.7; `CC(=O)N[C@H](C(=O)N1C[C@H](O)C[C@H]1C(=O)NCc1ccc(-c2scnc2C)cc1)C(C)(C)SCCOCCOCCNC(=O)C[C@@H]1N=C(c2ccc(Cl)cc2)c2c(sc(C)c2C)-n2c(C)nnc21`: -4.3; `Cc1ncsc1-c1ccc(CNC(=O)[C@@H]2C[C@H](O)CN2C(=O)[C@@H](NC(=O)COCCOCCOCCOCCOCCOCC(=O)N[C@H](C(=O)N2C[C@@H](O)C[C@H]2C(=O)NCc2ccc(-c3scnc3C)cc2)C(C)(C)C)C(C)(C)C)cc1`: -3.2.
Compound `CC(=O)N[C@H](C(=O)N1C[C@H](O)C[C@H]1C(=O)NCc1ccc(-c2scnc2C)cc1)C(C)(C)SCCCCNC(=O)C[C@@H]1N=C(c2ccc(Cl)cc2)c2c(sc(C)c2C)-n2c(C)nnc21` displayed a logD hydrocarbon water at 0.5 h of -3.8.
Still for that read-out and setting: the same measure for `CC(=O)N[C@H](C(=O)N1C[C@H](O)C[C@H]1C(=O)NCc1ccc(-c2scnc2C)cc1)C(C)(C)SCCOCCNC(=O)C[C@@H]1N=C(c2ccc(Cl)cc2)c2c(sc(C)c2C)-n2c(C)nnc21`: -3.8.

A further data set can be described thus: Permeability of the compound in phosphate buffer containing 5% DMSO at pH 7.4 incubated for 15 hrs by PAMPA based LC/MS analysis. Format: ADME. The note with it: pH 7.4, 15 h.
For the compound `Cc1ncsc1-c1ccc(CNC(=O)[C@@H]2C[C@@H](O)CN2C(=O)[C@@H](NC(=O)COCCOCCOCCOCC(=O)N[C@H](C(=O)N2C[C@H](O)C[C@H]2C(=O)NCc2ccc(-c3scnc3C)cc2)C(C)(C)C)C(C)(C)C)cc1`, the Peff is listed as 0.009 10^-6 cm/s.
Still for that read-out and setting: next, `Cc1ncsc1-c1ccc(CNC(=O)[C@@H]2C[C@@H](O)CN2C(=O)[C@@H](NC(=O)COCCOCCOCCOCCOCCOCC(=O)N[C@H](C(=O)N2C[C@H](O)C[C@H]2C(=O)NCc2ccc(-c3scnc3C)cc2)C(C)(C)C)C(C)(C)C)cc1`: 0.005 10^-6 cm/s.
